From PubChem BioAssay (NCI)
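Five concentrations, 48 hours, 96-well plates. TGI: concentration producing complete growth inhibition.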

Key:
Test in all cases: NCI-60 cell line screen, 48 h
[1] = system: 786-0 renal
[2] = system: A498 renal
[3] = system: A549 NSCLC
[4] = system: ACHN renal
[5] = system: BT-549 breast
[6] = system: CAKI-1 renal
[7] = system: CCRF-CEM leukemia
[8] = system: COLO 205 colon
[9] = system: DU-145 prostate
[10] = system: EKVX NSCLC
[11] = system: HCC-2998 colon
[12] = system: HCT-116 colon
[13] = system: HCT-15 colon
[14] = system: HOP-62 NSCLC
[15] = system: HOP-92 NSCLC
[16] = system: HS 578T breast
[17] = system: HT29 colon
[18] = system: IGROV1 ovarian
[19] = system: K-562 leukemia
[20] = system: KM12 colon
[21] = system: LOX IMVI melanoma
[22] = system: M14 melanoma
[23] = system: MALME-3M melanoma
[24] = system: MCF7 breast
[25] = system: MDA-MB-231 breast
[26] = system: MDA-MB-435
[27] = system: MDA-N
[28] = system: MOLT-4 leukemia
[29] = system: NCI-H226 lung
[30] = system: NCI-H23 lung
[31] = system: NCI-H460 lung
[32] = system: NCI-H522 lung
[33] = system: OVCAR-3 ovarian
[34] = system: OVCAR-4 ovarian
[35] = system: OVCAR-5 ovarian
[36] = system: OVCAR-8 ovarian
[37] = system: PC-3 prostate
[38] = system: RPMI-8226 leukemia
[39] = system: RXF 393 renal
[40] = system: SF-268 CNS
[41] = system: SF-295 CNS
[42] = system: SF-539 CNS
[43] = system: SK-MEL-2 melanoma
[44] = system: SK-MEL-28 melanoma
[45] = system: SK-MEL-5 melanoma
[46] = system: SK-OV-3 ovarian
[47] = system: SN12C renal
[48] = system: SNB-19 CNS
[49] = system: SNB-75 CNS
[50] = system: SR leukemia
[51] = system: SW-620 colon
[52] = system: TK-10 renal
[53] = system: U251 CNS
[54] = system: UACC-257 melanoma
[55] = system: UACC-62 melanoma
[56] = system: UO-31 renal

COc1cc(C2CC(C)(Nc3ccccc3)Oc3cc4c(cc32)OCO4)cc(OC)c1OC (stereo unspecified)
TGI [1]: > 78.4 µM | TGI [2]: > 100 µM | TGI [3]: > 100 µM | TGI [4]: > 90.7 µM | TGI [5]: > 100 µM | TGI [6]: > 71.8 µM | TGI [7]: 3.72 µM | TGI [8]: 5.27 µM | TGI [9]: 6.13 µM | TGI [10]: > 100 µM | TGI [11]: 3.98 µM | TGI [12]: > 51.2 µM | TGI [13]: > 100 µM | TGI [14]: > 55.1 µM | TGI [15]: > 100 µM | TGI [16]: > 100 µM | TGI [17]: 0.619 µM | TGI [18]: > 59.8 µM | TGI [19]: > 100 µM | TGI [20]: > 37.5 µM | TGI [21]: > 100 µM | TGI [22]: > 63.1 µM | TGI [23]: > 100 µM | TGI [24]: > 51.5 µM | TGI [25]: 4.34 µM | TGI [26]: 0.0688 µM | TGI [27]: 0.183 µM | TGI [28]: > 31.6 µM | TGI [29]: 7.12 µM | TGI [30]: > 33.6 µM | TGI [31]: 25.6 µM | TGI [32]: 10.7 µM | TGI [33]: 3.52 µM | TGI [34]: > 78.5 µM | TGI [35]: > 34.3 µM | TGI [36]: > 100 µM | TGI [37]: > 100 µM | TGI [38]: 50.1 µM | TGI [39]: > 100 µM | TGI [40]: > 100 µM | TGI [41]: 3.57 µM | TGI [42]: 0.477 µM | TGI [43]: > 29.4 µM | TGI [44]: > 100 µM | TGI [45]: 8.01 µM | TGI [46]: 25.9 µM | TGI [47]: > 100 µM | TGI [48]: > 100 µM | TGI [49]: > 100 µM | TGI [50]: > 60.7 µM | TGI [51]: > 100 µM | TGI [52]: > 100 µM | TGI [53]: 17.2 µM | TGI [54]: > 85.2 µM | TGI [55]: > 100 µM | TGI [56]: 34.2 µM
